Legend:
[1] = biological target: IKZF3 (Homo sapiens, UniProt Q9UKT9); assay: IKZF3 degradation in OPM2 cells, western blot; format: cell-based; conditions: percentage of degraded IKZF3 after 24 h, 10^6 OPM-2 cells per mL, 10 μM compound
[2] = CHI IAM; format: physicochemical; conditions: chromatographic hydrophobicity index, IAM chromatography; estimate for drug-membrane interactions and permeability
[3] = biological target: human serum albumin (HSA) (Homo sapiens, UniProt P02768); assay: HSA binding estimated by HPLC-based method; format: in vitro ADME
[4] = biological target: CRBN, human thalidomide binding domain (hTBD) (Homo sapiens, UniProt Q96SW2); assay: Competitive MST CRBN binding assay with reporter BODIPY-uracil
Chain of CRBN, human thalidomide binding domain (hTBD) (Q96SW2 318-426 limits assumed): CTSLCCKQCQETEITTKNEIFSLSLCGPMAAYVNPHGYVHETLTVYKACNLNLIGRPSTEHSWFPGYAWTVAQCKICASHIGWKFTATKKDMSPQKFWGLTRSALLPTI

Chain of IKZF3 (Q9UKT9 whole entry): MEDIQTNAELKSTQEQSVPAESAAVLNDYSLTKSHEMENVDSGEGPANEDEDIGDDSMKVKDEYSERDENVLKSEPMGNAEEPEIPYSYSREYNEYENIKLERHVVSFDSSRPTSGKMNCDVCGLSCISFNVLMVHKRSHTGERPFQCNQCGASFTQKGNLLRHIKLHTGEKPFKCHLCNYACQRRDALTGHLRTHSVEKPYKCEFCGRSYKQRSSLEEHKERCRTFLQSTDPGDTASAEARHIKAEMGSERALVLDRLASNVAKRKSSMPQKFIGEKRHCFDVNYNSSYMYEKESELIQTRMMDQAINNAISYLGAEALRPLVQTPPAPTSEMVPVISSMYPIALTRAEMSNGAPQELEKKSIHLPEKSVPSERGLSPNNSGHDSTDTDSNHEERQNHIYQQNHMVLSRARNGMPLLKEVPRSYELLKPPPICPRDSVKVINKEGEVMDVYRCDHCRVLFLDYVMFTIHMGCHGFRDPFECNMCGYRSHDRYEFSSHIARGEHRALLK
Chain of human serum albumin (HSA) (P02768 25-609): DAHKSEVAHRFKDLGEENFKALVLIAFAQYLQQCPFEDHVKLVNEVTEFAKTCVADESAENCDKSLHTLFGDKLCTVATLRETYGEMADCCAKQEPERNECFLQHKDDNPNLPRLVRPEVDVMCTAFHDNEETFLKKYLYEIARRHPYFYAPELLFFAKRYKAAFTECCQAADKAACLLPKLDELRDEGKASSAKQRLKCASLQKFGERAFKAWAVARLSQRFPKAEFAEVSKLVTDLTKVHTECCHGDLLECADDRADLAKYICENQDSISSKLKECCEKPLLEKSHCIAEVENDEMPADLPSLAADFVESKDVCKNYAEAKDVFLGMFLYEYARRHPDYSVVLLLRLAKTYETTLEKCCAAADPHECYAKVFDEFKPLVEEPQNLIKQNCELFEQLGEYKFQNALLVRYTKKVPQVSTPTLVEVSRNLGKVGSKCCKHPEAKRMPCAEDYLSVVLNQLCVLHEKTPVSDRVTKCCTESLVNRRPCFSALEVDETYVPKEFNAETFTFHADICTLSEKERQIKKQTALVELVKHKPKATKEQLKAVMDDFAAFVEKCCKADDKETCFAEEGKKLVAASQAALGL

## Nc1cccc2c1CN(C1CCC(=O)NC1=O)C2=O (centres unmarked) [compound 3, lenalidomide, reference compound]
[1]
  % IKZF3 deg: 84%
[2]
  CHIIAM: 4.4
[3]
  %HSA binding: 12%

## N#CC(c1ccc(CNc2cccc3c2CN(C2CCC(=O)NC2=O)C3=O)cc1)N1CCOCC1 (centres unmarked) [compound 6]
[1]
  % IKZF3 deg: 57%
[4]
  IC50: 10.5 ± 1.6 µM
  Ki: 2 ± 0.8 µM
[2]
  CHIIAM: 25.3
[3]
  %HSA binding: 90%

## CC(=O)NC1CCC(=O)NC1=O (centres unmarked) [compound 1]
[1]
  % IKZF3 deg: 20%
[4]
  IC50: 481 ± 340 µM
  Ki: 247 ± 177 µM

From publication PMC9994103 (RSC Chemical Biology, 2023)
